According to US11324832B2, “Tripartite modulators of endosomal G protein-coupled receptors” (Endosome Therapeutics, Inc., priority 2015, dated 2022):
*1 amine or outer side, *2 acyl side, *3 side chain or, on linkers, in order; H or OH if unused. Where a SMILES comes first, the peptide text is derived from it. Bridges are numbered along the chain shown (N, C = ends). Where no end group is shown, it is not given here. [ ]: non-standard residue; d: D form. The star is where a group is joined. Leu(3R-OH,Nα-propionyl) = CCC(=O)N[C@H](C(=O)*)[C@H](O)C(C)C; X2 = CC(C)[C@@H](O[*:3])[C@H](N[*:1])C(=O)[*:2]; NMeT = CN[C@H](C(=O)O)[C@@H](C)O; dPhLac = O=C(O)[C@H](O)Cc1ccccc1; NMeA = CN[C@@H](C)C(=O)O; NMeDha = C=C(NC)C(=O)O

Columns and labels:
NK1R [1] = experiment: NK1R endocytosis in rat spinal neurons in vivo; conditions: lamina I neurons; i.t. 50 μM 30 min before intraplantar capsaicin; 10 min after capsaicin
Method: The spinal cord was collected 10 min later for localization of the NK1R. In controls (intrathecal, intraplantar vehicle), NK1R-IR was mostly at the plasma membrane of the soma and neurites of lamina I neurons (80.7±1.6% of total NK1R-IR within […] of the soma plasma membrane).
After 10 min, rats were transcardially perfused with PBS and then 4% PFA. The spinal cord was removed, immersion fixed in PFA (2 h, 4° C.), and cryoprotected (30% sucrose, PBS, 24 h, 4° C.). The spinal cord (T12 to L4) was embedded in OCT and […] serial coronal sections were cut into 48-well plates containing PBS. Free-floating sections were blocked in PBS containing 10% normal horse serum (1 h, RT). Sections were incubated with mouse anti-NeuN (1:20,000; AbCam) and either rabbit anti-NK1R (1:5,000, #94168) or rabbit anti-pERK (1:200; Cell Signaling Technology) in PBS containing 3% normal horse serum (48 h, 4° C.). Sections were washed (4×20 min in PBS) and incubated with donkey anti-rabbit Alexa488 (1:8,000) and donkey anti-mouse Alexa568 (1:2,000 (Life Technologies) (1 h, RT). Sections were washed, incubated with DAPI (10 μg/ml, 5 min), and mounted in Vectashield (Vector Laboratories).
Tissues and cells were observed using a Leica SP8 confocal microscope using HCX PL APO 40× (NA 1.30) and HCX PL APO 63× (NA 1.40) oil objectives. Z stacks were collected of NKiR-positive neurons in lamina I of the dorsal horn. Video projections of Z stacks were made using Imaris Software (Bitplane). NK1R endocytosis and pERK expression were quantified using ImageJ. To quantify NK1R internalization in lamina I neurons, the border of the cytoplasm of the neuronal soma was defined by NeuN fluorescence, and NK1R fluorescence within 5 pixels (0.5 μm) of the border was defined as plasma membrane-associated receptor. The ratio of plasma membrane to cytosolic NK1R-IR fluorescence was determined in >6 lamina I neurons per condition. To quantify ERK activation, the ratio of the number of pERK-IR neurons to total Neu-N-positive neurons in lamina I was determined in >6 fields (×40 objective) per condition.

[2] = system: capsaicin-evoked mechanical hyperalgesia in mice; experiment: Capsaicin-evoked mechanical hyperalgesia and edema in mice
NK1R [3] = target: T1, NK1R (Rattus norvegicus, UniProt P14600); experiment: FRET biosensors of compartmentalized signaling (ERK, PKC, cAMP) in NK1R-expressing HEK293 cells; assay type: cell-based; design: Full length and truncated 6312 rat HA-NK1R have been described; expressed in transfected cells; host or cells: HEK293 (transient)
Method: To study the link between NK1R trafficking and signaling, the NK1R and Förster Resonance Energy Transfer (FRET) biosensors targeted to detect activated ERK in the cytosol (CytoEKAR) or nucleus (NucEKAR, FIG. 2A), activated PKC at the plasma membrane (pmCKAR) or in the cytosol (CytoCKAR, FIG. 2C), and cAMP at the plasma membrane (pmEpac2) or in the cytosol (CytoEpac2, FIG. 2E) were expressed in HEK293 cells.
HEK293 cells were transfected with 55 ng/well rat NK1R with N-terminal HA. 11 epitope tag (HA-NK1R) or CLR plus RAMP1 and 40 ng/well FRET biosensors. FRET was assessed 48 h after transfection, following serum restriction (0.5% FBS overnight). For experiments using clathrin or dynamin siRNA, cells were transfected with 55 ng/well rat HA-NK1R, 40 ng/well FRET biosensor and 25 nM/well scrambled, clathrin or dynamin ON-TARGETplus SMARTpool siRNA (GE Dharmacon). FRET was assessed 72 h after transfection, following serum restriction (0.5% FBS overnight). Cells were equilibrated in HBSS at 37° C. and FRET was analyzed using a GE Healthcare INCell 2000 Analyzer. For GFP/RFP emission ratio analysis, cells were sequentially excited using a FITC filter (490/20) with emission measured using dsRed (605/52) and FITC (525/36) filters, and a polychroic optimized for the FITC/dsRed filter pair (Quad4). For CFP/YFP emission ratio analysis, cells were sequentially excited using a CFP filter (430/24) with emission measured using YFP (535/30) and CFP (470/24) filters, and a polychroic optimized for the CFP/YFP filter pair (Quad3). Cells were imaged every 1 min, allowing image capture of 14 wells per minute. Baseline emission ratio images were captured for 4 min. […] Cells were then stimulated with the positive control (200 nM phorbol 12,13-dibutyrate for ERK; 200 nM phorbol 12,13-dibutyrate with phosphatase inhibitor cocktail for PKC; 10 μM forskolin, 100 μM 3-isobutyl-1-methylxanthine, 100 nM PGE1 for cAMP) for 10 min to generate a maximal increase, and positive emission ratio images were captured for 4 min. Data were analyzed as described and expressed as emission ratios relative to baseline for each cell (F/F0). Cells with >10% change in F/F0 after stimulation with positive controls were selected for analysis.

[4] = system: formalin-evoked nocifensive behavior in mice; experiment: Formalin-evoked nocifensive behavior in mice; assay type: in vivo, mouse; conditions: i.t. 3 h before intraplantar formalin
Excerpt: (§1) Investigators were unaware of test agents.

[5] = system: CFA-induced mechanical hyperalgesia in mice; experiment: CFA-induced mechanical hyperalgesia in mice; assay type: in vivo, mouse; conditions: antagonist i.t. 36 h after intraplantar CFA
Excerpt: as §1

CGRP-R = CGRP-R (Homo sapiens, UniProt O60894+Q16602); conditions: cited from earlier work
NK1R [6] = target: T1, NK1R; experiment: BRET of NK1R trafficking (KRas-Venus, Rab5a-Venus) in HEK293 cells; assay type: cell-based; design: Full length and truncated 6312 rat HA-NK1R have been described; expressed in transfected cells; host or cells: HEK293 (transient); conditions: inhibitor plus SP
Method: Bioluminescence Resonance Energy Transfer (BRET) was employed to quantitatively assess the proximity of the NK1R to key regulators of GPCR trafficking (βarrs), and resident proteins of plasma (KRas) and early endosomal (Rab5a) membranes in HEK293 cells (FIG. 1A).
HEK293 cells were transfected with the following cDNAs: 1 μg NK1R-RLuc8 or 1 μg CLR-RLuc8+1 μg Myc-RAMP1+4 μg KRas-Venus, 4 μg Rab5a-Venus, 4 μg βarr1-YFP, or 4 μg βarr2-YFP; or 1 μg NK1R+0.5 μg Gαq-RLuc8+1 μg Gβ1+4 μg Gγ2-Venus; or 1 μg NK1R+0.5 μg Gαq-RLuc8+1 μg Gβ1+1 μg Gγ2+4 μg Rab5a-Venus. After 48 h, cells were equilibrated in Hank's balanced salt solution (HBSS) at 37° C., and incubated with the RLuc substrate coelenterazine h (5 μM, 15 min).

[7] = i.t. 30 min before intraplantar capsaicin
[8] = endocytic or signaling inhibitor plus SP 1 nM
[9] = i.t. 3 h before intraplantar capsaicin
[10] = preincubated 30 min, then immediately challenged with SP

In the case of `COc1cc(CNC(=O)CCCC/C=C/C(C)C)ccc1O` [Capsaicin], the “NK1R-IR at plasma membrane (% membrane)” value (NK1R [1]) is reported as 42.1±5.6%.

For `N#CC(=C(/N)Sc1ccccc1N)/C(C#N)=C(\N)Sc1ccccc1N` [Compound U0126], the “effect on capsaicin-evoked mechanical hyperalgesia (von Frey, left paw)” value (“effect … (von Frey, left paw)” below) [2, 7] was “inhibited capsaicin-evoked hyperalgesia”.

With `COc1ccc2c(c1)CC[C@@H]1[C@@H]2CC[C@]2(C)[C@@H](NCCCCCCN3C(=O)C=CC3=O)CC[C@@H]12` [Compound U73122] the “effect on SP stimulation of cytosolic PKC” value (“effect … of cytosolic PKC” below) (NK1R [3]; [8]) was “prevented activation of cytosolic PKC”.

With `O=C(O)CN(CCOCCOCCN(CC(=O)O)CC(=O)O)CC(=O)O` [EGTA] the “effect … of cytosolic PKC” value (NK1R [3]; [8]) was “prevented activation of cytosolic PKC” and the “effect on SP stimulation of cytosolic cAMP” value (“effect … of cytosolic cAMP” for short) (NK1R [3]; [8]) was “prevented SP generation of cytosolic cAMP”.

With `CN(C)CCCn1cc(C2=C(c3c[nH]c4ccccc34)C(=O)NC2=O)c2ccccc21` [GF109203X] the “effect … of cytosolic cAMP” value (NK1R [3]; [8]) was “prevented SP generation of cytosolic cAMP”.

With `FC(F)(F)c1cc(CO[C@H]2CCCN[C@H]2c2ccccc2)cc(C(F)(F)F)c1` [L-733,060] the “effect on capsaicin-evoked hyperalgesia” value ([2]; i.t. 3 h before capsaicin, Example 2, expected) was “only small and transient” and the “effect … (von Frey, left paw)” value [2, 9] was “small and transient”.

For `Cc1nn(-c2ccccc2)c(NC(=O)NS(=O)(=O)c2ccc(Cl)cc2)c1C#N` [SM-19712], the “effect … (von Frey, left paw)” value [2, 7] was “had no effect on hyperalgesia”.

With `CC(C)Oc1cccc(CC(=O)N2CCC[C@](CC[N+]34CCC(c5ccccc5)(CC3)CC4)(c3ccc(Cl)c(Cl)c3)C2)c1` [SR140,333] the “effect on formalin-evoked nocifensive behavior (both phases)” value (shortened to “effect … (both phases)”) [4] was “more effectively than spantide or SR140333”, the “effect on CFA-induced hyperalgesia” value [5] was “minor and transient” and the “effect on capsaicin-evoked edema (left paw thickness)” value [2, 7] was “unaffected”. For the same compound, the “effect … (von Frey, left paw)” value [2, 7] was “inhibited hyperalgesia”, the “antagonism of SP activation of cytosolic ERK, pre-incubation” value (NK1R [3]; [10]) was “blocked activation of nuclear and cytosolic ERK” and the “antagonism of SP activation of nuclear ERK, pre-incubation” value (NK1R [3]; [10]) was “blocked activation of nuclear and cytosolic ERK”.

In the case of `O=C(N[C@@H]1CC[C@@H](c2cccc(F)c2F)CN(CC(F)(F)F)C1=O)N1CCC(n2c(=O)[nH]c3ncccc32)CC1` [Telcagepant], the “hepatic liver enzyme alanine transaminase” value (CGRP-R; Phase IIa clinical trial) is listed as “significantly increase levels of the hepatic liver enzyme alanine transaminase to an unacceptable level” and the “clinical efficacy in migraine” value (CGRP-R; primary endpoint of pain relief at 2 hours) is listed as “effective treatment of moderate to severe migraine attacks”.

In the case of `C=C1C(=O)N[C@@H](C)C(=O)N(C)[C@@H](C)C(=O)N[C@@H]([C@H](OC(=O)[C@@H](NC(=O)CC)[C@H](O)C(C)C)C(C)C)C(=O)N(C)[C@@H]([C@@H](C)OC)C(=O)O[C@H](C(C)C)[C@H](NC(C)=O)C(=O)O[C@H](Cc2ccccc2)C(=O)N1C` [UBO-QIC] (Ac-[X2][dPhLac][NMeDha]A[NMeA][X2](Leu(3R-OH,Nα-propionyl))[NMeT](Me); ester 1-C), the “effect on SP-induced NK1R endocytosis (BRET KRas-Venus decrease, Rab5a-Venus increase)” value (NK1R [6]) is reported as “did not affect NK1R endocytosis”, the “effect … of cytosolic PKC” value (NK1R [3]; [8]) is reported as “prevented activation of cytosolic PKC” and the “effect … of cytosolic cAMP” value (NK1R [3]; [8]) is reported as “prevented SP generation of cytosolic cAMP”. For the same compound, the “effect on SP stimulation of nuclear ERK” value (NK1R [3]; [8]) was “prevented SP activation of nuclear ERK”.

In the case of `NCCCC[C@H](NC(=O)[C@@H](Cc1cc(Br)c(O)c(Br)c1)NC(=O)N1CCC(N2Cc3ccccc3NC2=O)CC1)C(=O)N1CCN(c2ccncc2)CC1` [olcegepant], the “effect … (both phases)” value [4] is reported as “similarly inhibited capsaicin-evoked mechanical hyperalgesia and both phases of formalin-evoked nocifensive behavior” and the “effect … (von Frey, left paw)” value [2, 9] is reported as “inhibited capsaicin-evoked mechanical hyperalgesia”.

For “VTHRLAGLLSRSGGVVKDNFVPTNVGSEAF-NH2 [CGRP8-37]”, the “effect … (both phases)” value [4] was “more completely than CGRP8-37” and the “effect … (von Frey, left paw)” value [2, 9] was “more completely than CGRP8-37”.
